From ChEMBL document CHEMBL1201862, “PubChem BioAssay data set” (2004)
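Where inhibition never reached the appropriate level, the endpoint shown equals the highest concentration tested. Otherwise, values were interpolated linearly from a five-concentration, 48-hour dose response in 96-well plates. GI50 is the concentration that inhibits growth by half.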 The source made the active and inactive calls. Rule as the data show it: active = GI50 up to about 1.1 µM and inactive = higher.

What was measured:
Test in all cases: NCI anticancer screen, dose series, 48 h
ACHN = tested on: ACHN
CAKI-1 = tested on: CAKI-1
HCT-116 = tested on: HCT-116
HL-60 = tested on: HL-60
HOP-92 = tested on: HOP-92
Hs-578T = tested on: Hs-578T
IGROV-1 = tested on: IGROV-1
K562 = tested on: K562
MDA-MB-231 = tested on: MDA-MB-231
MDA-N = tested on: MDA-N
Malme-3M = tested on: Malme-3M
NCI-H226 = tested on: NCI-H226
NCI-H460 = tested on: NCI-H460
NCI-H522 = tested on: NCI-H522
OVCAR-3 = tested on: OVCAR-3
SF-268 = tested on: SF-268
SF-539 = tested on: SF-539
SK-MEL-2 = tested on: SK-MEL-2
SK-MEL-5 = tested on: SK-MEL-5
SNB-19 = tested on: SNB-19

Compound	GI50 (ACHN)	GI50 (CAKI-1)	GI50 (HCT-116)	GI50 (HL-60)	GI50 (HOP-92)	GI50 (Hs-578T)	GI50 (IGROV-1)	GI50 (K562)	GI50 (MDA-MB-231)	GI50 (MDA-N)	GI50 (Malme-3M)	GI50 (NCI-H226)	GI50 (NCI-H460)	GI50 (NCI-H522)	GI50 (OVCAR-3)	GI50 (SF-268)	GI50 (SF-539)	GI50 (SK-MEL-2)	GI50 (SK-MEL-5)	GI50 (SNB-19)
O=C(/C=C\Nc1ccccc1O)C(F)(F)F	67.8 µM (inactive)	68.1 µM (inactive)	29.5 µM (inactive)	16.6 µM (inactive)	> 100 µM (inactive)	> 100 µM (inactive)	78.9 µM (inactive)	38.5 µM (inactive)	> 100 µM (inactive)	43 µM (inactive)	26.5 µM (inactive)	> 100 µM (inactive)	67.5 µM (inactive)	31 µM (inactive)	19.5 µM (inactive)	> 100 µM (inactive)	> 100 µM (inactive)	69 µM (inactive)	21 µM (inactive)	> 100 µM (inactive)
O=C1CN2CCN(CC2)CC(=O)Nc2ccc(cc2)S(=O)(=O)c2ccc(cc2)NC(=O)CN2CCN(CC2)CC(=O)Nc2ccc(cc2)S(=O)(=O)c2ccc(cc2)N1	66.4 µM (inactive)	> 47.8 µM (inactive)	14.8 µM (inactive)	0.557 µM (active)	> 100 µM (inactive)	> 100 µM (inactive)	13.8 µM (inactive)	15.8 µM (inactive)	16.1 µM (inactive)	41.8 µM (inactive)	15.8 µM (inactive)	64.7 µM (inactive)	19.5 µM (inactive)	4.71 µM (inactive)	27.9 µM (inactive)	19 µM (inactive)	23.3 µM (inactive)	> 71.1 µM (inactive)	31.8 µM (inactive)	> 100 µM (inactive)
Cc1cc(C2(c3cc(C)c(O)c(C(=O)O)c3)OS(=O)(=O)c3ccccc32)cc(C(=O)O)c1O	> 100 µM (inactive)	> 100 µM (inactive)	> 100 µM (inactive)	> 100 µM (inactive)	> 100 µM (inactive)	> 100 µM (inactive)	> 100 µM (inactive)	> 100 µM (inactive)	> 100 µM (inactive)	> 100 µM (inactive)	> 100 µM (inactive)	> 100 µM (inactive)	> 100 µM (inactive)	> 100 µM (inactive)	> 100 µM (inactive)	> 100 µM (inactive)	> 100 µM (inactive)	> 100 µM (inactive)	> 100 µM (inactive)	> 100 µM (inactive)
CC(=O)OC12CC(C)C3(O)C4C=C(C)C(=O)[C@@]4(O)CC(CO)=C[C@H]3C1C2(C)C (stereo not given in full)	> 10 µM (inactive)	4.7 µM (inactive)	> 10 µM (inactive)	0.887 µM (active)	65.8 µM (inactive)	0.82 µM (active)	> 10 µM (inactive)	0.494 µM (active)	> 10 µM (inactive)	2.69 µM (inactive)	> 10 µM (inactive)	> 10 µM (inactive)	> 100 µM (inactive)	> 10 µM (inactive)	> 10 µM (inactive)	> 10 µM (inactive)	> 10 µM (inactive)	> 10 µM (inactive)	5.2 µM (inactive)	> 10 µM (inactive)
COc1ccccc1NC(=S)N/N=C/c1cccc(C)n1	2.71 µM (inactive)	4.75 µM (inactive)	3.4 µM (inactive)	3.15 µM (inactive)	8.09 µM (inactive)	11.5 µM (inactive)	4.06 µM (inactive)	1.27 µM (inactive)	3.52 µM (inactive)	4.17 µM (inactive)	6.24 µM (inactive)	5.82 µM (inactive)	2.49 µM (inactive)	0.279 µM (active)	1.26 µM (inactive)	6.97 µM (inactive)	4.89 µM (inactive)	5.64 µM (inactive)	4.17 µM (inactive)	10.9 µM (inactive)
C=C1C(=O)OC2C1CC(OC(C)=O)/C(C)=C/CCC1(C)OC21 (stereo not given)	> 100 µM (inactive)	> 100 µM (inactive)	> 100 µM (inactive)	> 100 µM (inactive)	> 100 µM (inactive)	> 100 µM (inactive)	> 100 µM (inactive)	> 100 µM (inactive)	> 100 µM (inactive)	> 100 µM (inactive)	> 100 µM (inactive)	> 100 µM (inactive)	> 100 µM (inactive)	> 100 µM (inactive)	> 100 µM (inactive)	> 100 µM (inactive)	> 100 µM (inactive)	> 100 µM (inactive)	> 100 µM (inactive)	> 100 µM (inactive)
CC(=O)/C=N/CC(=O)O	> 100 µM (inactive)	> 100 µM (inactive)	> 100 µM (inactive)	> 100 µM (inactive)	> 100 µM (inactive)	> 100 µM (inactive)	> 100 µM (inactive)	> 100 µM (inactive)	> 100 µM (inactive)	> 100 µM (inactive)	> 100 µM (inactive)	> 100 µM (inactive)	> 100 µM (inactive)	> 100 µM (inactive)	> 100 µM (inactive)	> 100 µM (inactive)	> 100 µM (inactive)	> 100 µM (inactive)	> 100 µM (inactive)	> 100 µM (inactive)
CCC(C)C(N)C(=O)N/N=C\c1c2c(nc3ccccc13)-c1cc3c(c(=O)n1C2)COC(=O)[C@]3(O)CC (stereo not given in full)	< 0.0117 µM (active)	0.0397 µM (active)	0.0536 µM (active)	0.0164 µM (active)	0.0803 µM (active)	1.82 µM (inactive)	0.832 µM (active)	0.063 µM (active)	2.37 µM (inactive)	0.46 µM (active)	0.438 µM (active)	0.0598 µM (active)	< 0.0134 µM (active)	< 0.048 µM (active)	0.879 µM (active)	< 0.01 µM (active)	< 0.01 µM (active)	1.08 µM (active)	0.0594 µM (active)	< 0.01 µM (active)
O=c1[nH]nc(-c2ccccc2)c2[nH]c3c(c12)Cc1ccccc1-3	6.18 µM (inactive)	13.8 µM (inactive)	1.82 µM (inactive)	0.665 µM (active)	1.67 µM (inactive)	5.46 µM (inactive)	0.723 µM (active)	0.839 µM (active)	0.378 µM (active)	0.38 µM (active)	1.08 µM (active)	3.9 µM (inactive)	2.11 µM (inactive)	0.295 µM (active)	0.914 µM (active)	2.87 µM (inactive)	2.34 µM (inactive)	1.43 µM (inactive)	0.115 µM (active)	7.06 µM (inactive)
COc1ccc(C(=O)c2ccc(-n3cc(/C=C/[N+](=O)[O-])c4ccccc43)cc2)cc1	20.1 µM (inactive)	19.1 µM (inactive)	10.6 µM (inactive)	13.7 µM (inactive)	17.9 µM (inactive)	7.57 µM (inactive)	10.8 µM (inactive)	6.53 µM (inactive)	19.3 µM (inactive)	22.8 µM (inactive)	20.2 µM (inactive)	> 51.5 µM (inactive)	35.9 µM (inactive)	15.4 µM (inactive)	13.6 µM (inactive)	18 µM (inactive)	14.7 µM (inactive)	23.1 µM (inactive)	21.6 µM (inactive)	30.2 µM (inactive)
O=C(O)c1ccccc1/C=N/N=C1c2ccccc2-c2ccccc21	45.1 µM (inactive)	35.3 µM (inactive)	31 µM (inactive)	28.8 µM (inactive)	35.3 µM (inactive)	3.94 µM (inactive)	43.3 µM (inactive)	32.1 µM (inactive)	59 µM (inactive)	37.5 µM (inactive)	23.3 µM (inactive)	20.8 µM (inactive)	26.7 µM (inactive)	28.6 µM (inactive)	15.6 µM (inactive)	21.3 µM (inactive)	27.9 µM (inactive)	44.1 µM (inactive)	33.3 µM (inactive)	39.9 µM (inactive)
COc1ccc(OC)c(N2C(=O)CSC2c2cc(OC)c(OC)c(OC)c2)c1 (stereo not given)	> 100 µM (inactive)	> 100 µM (inactive)	> 100 µM (inactive)	> 100 µM (inactive)	> 100 µM (inactive)	> 100 µM (inactive)	> 100 µM (inactive)	83.8 µM (inactive)	> 100 µM (inactive)	33.4 µM (inactive)	> 100 µM (inactive)	> 100 µM (inactive)	> 100 µM (inactive)	40.6 µM (inactive)	> 100 µM (inactive)	> 100 µM (inactive)	> 100 µM (inactive)	> 100 µM (inactive)	99.8 µM (inactive)	> 100 µM (inactive)
